Test results reported in US20080242685A1, “Chemical Compounds” (Smithkline Beecham Corporation, priority 2005, published 2008).

Molecular target: T1, Recombinant human IKKβ (residues 1-737) (Homo sapiens, UniProt O14920)
T1 construct: Recombinant human IKKβ (residues 1-737); GST (C); made in house
T1 sequence (O14920 1-737): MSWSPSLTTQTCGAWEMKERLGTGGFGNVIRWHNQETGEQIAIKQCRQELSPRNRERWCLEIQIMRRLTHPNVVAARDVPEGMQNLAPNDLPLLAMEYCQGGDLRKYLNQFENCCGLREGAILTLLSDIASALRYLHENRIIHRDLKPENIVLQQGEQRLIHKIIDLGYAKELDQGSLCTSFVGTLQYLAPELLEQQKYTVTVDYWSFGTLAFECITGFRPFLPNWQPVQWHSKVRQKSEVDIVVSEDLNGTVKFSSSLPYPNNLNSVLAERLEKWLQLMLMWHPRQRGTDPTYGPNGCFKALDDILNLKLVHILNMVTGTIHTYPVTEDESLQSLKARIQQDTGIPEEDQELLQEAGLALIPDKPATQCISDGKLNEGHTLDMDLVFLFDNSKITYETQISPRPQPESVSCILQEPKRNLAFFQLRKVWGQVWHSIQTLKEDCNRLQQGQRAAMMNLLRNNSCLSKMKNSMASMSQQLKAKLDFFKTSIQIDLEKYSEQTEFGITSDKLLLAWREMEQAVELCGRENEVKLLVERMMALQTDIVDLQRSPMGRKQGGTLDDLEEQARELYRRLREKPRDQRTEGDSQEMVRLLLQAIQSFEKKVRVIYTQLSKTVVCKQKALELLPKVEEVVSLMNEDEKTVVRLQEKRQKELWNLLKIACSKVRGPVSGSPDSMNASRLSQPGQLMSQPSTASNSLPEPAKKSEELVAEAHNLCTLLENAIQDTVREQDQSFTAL
Test: IKK2 Assay (TR-FRET)
Format: biochemical
Conditions: IKK2 5 nM, GST-IκBα substrate 25 nM, ATP 1 μM, 30 minutes at room temperature, read-out: pIC50 against IKK2 (converted)
Protocol: Recombinant human IKKβ (residues 1-737) was expressed in baculovirus as a C-terminal GST-tagged fusion protein, and its activity was assessed using a time-resolved fluorescence resonance energy transfer (TR-FRET) assay. Briefly, IKK2 (5 nM final) diluted in assay buffer (50 mM HEPES, 10 mM MgCl2, 1 mM CHAPS pH 7.4 with 1 mM DTT and 0.01% w/v BSA) was added to wells containing various concentrations of compound or DMSO vehicle (3% final). The reaction was initiated by the addition of GST-IκBα substrate (25 nM final)/ATP (1 μM final), in a total volume of 30 μl. The reaction was incubated for 30 minutes at room temperature, then terminated by the addition of 15 μl of 50 mM EDTA. Detection reagent (15 μl) in buffer (100 mM HEPES pH 7.4, 150 mM NaCl and 0.1% w/v BSA) containing antiphosphoserine-IκBα-32/36 monoclonal antibody 12C2 (Cell Signalling Technology, Beverly Mass., USA) labelled with W-1024 europium chelate (Wallac OY, Turku, Finland), and an APC-labelled anti-GST antibody (Prozyme, San Leandro, Calif., USA) was added and the reaction was further incubated for 60 minutes at room temperature. The degree of phosphorylation of GST-IκBα was measured using a Packard Discovery plate reader (Perkin-Elmer Life Sciences, Pangbourne, UK) as a ratio of specific 665 nm energy transfer signal to reference europium 620 nm signal.

Row | Structure (SMILES) | IC50 [µM]
1 | NC(=O)c1nc(-c2ccccc2)cc2cc[nH]c12 [Example 14, 5-phenyl-1H-pyrrolo[2,3-c]pyridine-7-carboxamide] | ≤ 10
2 | NC(=O)c1nc(-c2ccccc2)cc2c(C3CCNCC3)c[nH]c12 [Example 7, 5-phenyl-3-(4-piperidinyl)-1H-pyrrolo[2,3-c]pyridine-7-carboxamide] | ≤ 10
3 | CCS(=O)(=O)N1CCC(c2c[nH]c3c(C(N)=O)nc(-c4ccccc4)cc23)CC1 [Example 8, 3-[1-(ethylsulfonyl)-4-piperidinyl]-5-phenyl-1H-pyrrolo[2,3-c]pyridine-7-carboxamide] | ≤ 10
4 | CC(C)(C)OC(=O)N1CCC(c2c[nH]c3c(C(N)=O)nc(-c4ccccc4)cc23)CC1 [Example 6, 1,1-dimethylethyl 4-[7-(aminocarbonyl)-5-phenyl-1H-pyrrolo[2,3-c]pyridin-3-yl]-1-piperidinecarboxylate] | ≤ 10
5 | CC(C)(C)OC(=O)N1CC=C(c2c[nH]c3c(C(N)=O)nc(-c4ccccc4)cc23)CC1 [Example 5, 1,1-dimethylethyl 4-[7-(aminocarbonyl)-5-phenyl-1H-pyrrolo[2,3-c]pyridin-3-yl]-3,6-dihydro-1(2H)-pyridinecarboxylate] | ≤ 10
